Test results as given in ChEMBL document CHEMBL1136735, “Design and synthesis of naphthalenic dimers as selective MT1 melatoninergic ligands” (J Med Chem, 2003).
Active and inactive are the calls of the source. The rule behind the calls is not given here.

Legend:
[1] = biological target: T1, Melatonin receptor type 1A (Homo sapiens, UniProt P48039); test: Binding affinity for human Melatonin receptor type 1A stably transfected in human embryonic kidney cells (HEK 293) using 2-[125I]iodomelatonin as radioligand; type: cell-based, HEK293
T1 sequence (P48039 whole entry): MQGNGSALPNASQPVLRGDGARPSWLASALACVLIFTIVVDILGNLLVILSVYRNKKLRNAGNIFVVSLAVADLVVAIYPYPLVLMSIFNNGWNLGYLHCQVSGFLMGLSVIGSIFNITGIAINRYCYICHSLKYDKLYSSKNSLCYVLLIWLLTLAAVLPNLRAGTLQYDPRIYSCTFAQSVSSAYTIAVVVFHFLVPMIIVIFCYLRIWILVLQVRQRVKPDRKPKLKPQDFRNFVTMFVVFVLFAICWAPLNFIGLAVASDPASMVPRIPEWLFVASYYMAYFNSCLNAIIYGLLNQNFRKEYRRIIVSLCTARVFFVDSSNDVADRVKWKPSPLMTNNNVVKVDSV

[2] = biological target: T2, Melatonin receptor type 1B (Homo sapiens, UniProt P49286); test: Binding affinity for human Melatonin receptor type 1B stably transfected in human embryonic kidney cells (HEK 293) using 2-[125I]iodomelatonin as radioligand; type: cell-based, HEK293
T2 sequence (P49286 whole entry): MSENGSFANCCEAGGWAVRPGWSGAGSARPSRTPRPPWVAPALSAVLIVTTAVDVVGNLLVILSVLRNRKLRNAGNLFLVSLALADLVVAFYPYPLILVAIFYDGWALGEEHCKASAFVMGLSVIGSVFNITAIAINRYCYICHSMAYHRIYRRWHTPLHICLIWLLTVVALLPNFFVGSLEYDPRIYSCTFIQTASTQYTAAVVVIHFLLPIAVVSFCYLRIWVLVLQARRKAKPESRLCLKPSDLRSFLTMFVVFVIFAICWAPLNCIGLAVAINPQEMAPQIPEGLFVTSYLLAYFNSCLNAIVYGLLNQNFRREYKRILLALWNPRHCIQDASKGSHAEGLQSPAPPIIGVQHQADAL

[3] = biological target: T3, Melatonin receptor type 1B (Homo sapiens) (UniProt P49286); details: CHO
T3 sequence (whole entry): T2 sequence (P49286 whole entry)

[4] = biological target: T1, Melatonin receptor type 1A; details: CHO

SMILES	Ki [1]	Ki [2]	IA [3]	IA [4]
CC(=O)NCCc1cccc2ccc(OCCCCCCCCCCOc3ccc4cccc(CCNC(C)=O)c4c3)cc12	0.03 nM	0.04 nM	–	–
CC(=O)NCCc1cccc2ccc(OCCOc3ccc4cccc(CCNC(C)=O)c4c3)cc12	2.05 nM	182 nM	–	–
CC(=O)NCCc1cccc2ccc(OCCCCCOc3ccc4cccc(CCNC(C)=O)c4c3)cc12	0.05 nM	1.74 nM	–	–

Further molecules by falling Ki [1], results first:

Ki [1]	Ki [2]	IA [3]	IA [4]	SMILES
0.6 nM	72.7 nM	–	–	CC(=O)NCCc1cccc2ccc(OCCCCOc3ccc4cccc(CCNC(C)=O)c4c3)cc12
0.5 nM	112 nM	inactive	inactive	CC(=O)NCCc1cccc2ccc(OCCCOc3ccc4cccc(CCNC(C)=O)c4c3)cc12
0.08 nM	2.33 nM	–	–	CC(=O)NCCc1cccc2ccc(OCCCCCCOc3ccc4cccc(CCNC(C)=O)c4c3)cc12
0.05 nM	0.18 nM	–	–	CC(=O)NCCc1cccc2ccc(OCCCCCCCCOc3ccc4cccc(CCNC(C)=O)c4c3)cc12
